Experiment [1] has as its target T1, Ubiquitin-conjugating enzyme E2 K (Homo sapiens) (UniProt P61086).
T1 sequence (whole entry): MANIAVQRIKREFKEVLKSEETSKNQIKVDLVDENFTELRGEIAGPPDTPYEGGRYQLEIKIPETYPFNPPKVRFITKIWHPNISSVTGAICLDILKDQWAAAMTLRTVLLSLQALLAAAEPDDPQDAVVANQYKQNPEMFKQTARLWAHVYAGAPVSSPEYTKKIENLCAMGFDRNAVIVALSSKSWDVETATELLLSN
The experiment in a line: Stabilization of mono-ubiquitinated UBE2K (unknown origin) at 0.25 to 50 uM assessed as decrease in poly-Ub measured by poly-ubiquitination assay. Particulars: dose 0.25-50 µM.

Experiment [2] concerns the target T1, Ubiquitin-conjugating enzyme E2 K (Homo sapiens). The experiment in a line: Stabilization of mono-ubiquitinated UBE2K (unknown origin) at 500 uM assessed as decrease in poly-Ub measured by poly-ubiquitination assay.
The species entered for experiment [3] is Homo sapiens. The experiment in a line: Stabilization of mono-ubiquitinated UBE2D4 (unknown origin) at 500 uM assessed as decrease in poly-Ub measured by poly-ubiquitination assay.
Experiment [4] has as its target Ubiquitin-conjugating enzyme E2 E1 (Homo sapiens) (UniProt P51965). The experiment in a line: Stabilization of mono-ubiquitinated UBE2E1 (unknown origin) at 500 uM assessed as decrease in poly-Ub measured by poly-ubiquitination assay.
Experiment [5] is filed under the species Homo sapiens. The experiment in a line: Stabilization of mono-ubiquitinated UBE2Q2 (unknown origin) at 500 uM assessed as decrease in poly-Ub measured by poly-ubiquitination assay.
The species named for experiment [6] is Homo sapiens. The experiment in a line: Stabilization of mono-ubiquitinated UBE2S (unknown origin) at 500 uM assessed as decrease in poly-Ub measured by poly-ubiquitination assay.
For experiment [7], the species on record is Homo sapiens. The experiment in a line: Stabilization of mono-ubiquitinated UBE2W (unknown origin) at 500 uM assessed as decrease in poly-Ub measured by poly-ubiquitination assay.
Experiment [8] concerns the target T1, Ubiquitin-conjugating enzyme E2 K (Homo sapiens). The experiment in a line: Stabilization of mono-ubiquitinated UBE2K (unknown origin) at 0.4 to 100 uM assessed as decrease in poly-Ub measured by poly-ubiquitination assay. Particulars: dose 0.4-100 µM.
The target is the same in experiment [9]. The experiment in a line: Stabilization of UBE2K (unknown origin) at 1 to 1000 uM assessed as modulation of ubiquitin discharge measured by ELISA assay. The settings on record: dose 1-1000 µM. On the technique in general: An ELISA detects its analyte on a solid surface through an enzyme-linked reagent.
Experiment [10] has the same target. The experiment in a line: Stabilization of mono-ubiquitinated UBE2K (unknown origin) at 16 to 100 uM assessed as decrease in poly-Ub measured by poly-ubiquitination assay. Particulars: dose 16-100 µM.
Experiment [11] concerns MV4-11. The experiment in a line: Antitumor activity against human MV4-11 cells xenografted nude mouse assessed as tumor growth inhibition at 75 mg/kg, po administered twice a day for 24 days. The format is functional. The settings on record: MV4-11, po, 576 h, time 24 day, read-out: TGI. A general note: Xenograft models place foreign cells or tissue in a host animal.
Experiment [12] deals with MV4-11. The experiment in a line: Antitumor activity against human MV4-11 cells xenografted nude mouse assessed as tumor growth inhibition at 150 mg/kg, po administered twice a day for 24 days. The settings on record: MV4-11, po, 576 h, time 24 day, read-out: TGI. The experiment is classed as functional.
Experiment [13] has as its system K562. The experiment in a line: Antitumor activity against human K562 cells xenografted female SCID Bg mouse assessed as tumor growth inhibition at 25 mg/kg, po administered twice a day for 12 consecutive days and measured on day 10. The format is functional. Particulars: 240 h, time 10 day, read-out: TGI.
Experiment [14] has as its system K562. The experiment in a line: Antitumor activity against human K562 cells xenografted female SCID Bg mouse assessed as tumor growth inhibition at 25 mg/kg, po administered twice a day for 12 consecutive days and measured on day 12. The experiment is classed as functional. The settings on record: 288 h, time 12 day, read-out: TGI.
In experiment [15] the target is T1, Ubiquitin-conjugating enzyme E2 K (Homo sapiens). The experiment in a line: Stabilization of mono-ubiquitinated UBE2K (unknown origin) at 0.25 to 25 uM assessed as decrease in poly-Ub measured by poly-ubiquitination assay. The settings on record: dose 0.25-25 µM.

SMILES strings stand for the structures. Activity calls are given as the source filed them. The rule behind the calls is not given here.

Chain of Ubiquitin-conjugating enzyme E2 E1 (Homo sapiens) (P51965 whole entry): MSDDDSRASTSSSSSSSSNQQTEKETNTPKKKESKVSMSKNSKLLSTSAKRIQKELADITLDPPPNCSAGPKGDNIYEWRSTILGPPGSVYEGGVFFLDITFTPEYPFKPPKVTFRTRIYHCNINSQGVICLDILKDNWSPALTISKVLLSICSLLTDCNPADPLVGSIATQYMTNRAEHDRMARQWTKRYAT

Consider `O=C(NCc1cc(-c2cccs2)[nH]n1)c1ccccc1OC(F)(F)F`, for which the outcome in experiment [1] was Active.

Regarding `COc1ccc(F)cc1-c1nc(CNC(=O)c2ccccc2OC(F)F)n[nH]1`, the outcome in experiment [2] was Active. Further, the result (in the experiment listed under Homo sapiens [3]; in experiment [4]; in the experiment filed under Homo sapiens [5]; in the experiment listed under Homo sapiens [6]; in the experiment filed under Homo sapiens [7]) was inactive.

On to `COc1ccccc1-c1cc(CNC(=O)c2ccccc2OC(F)(F)F)n[nH]1`, for which the outcome in experiment [8], in experiment [2] and in [9] was Active. For the same compound, the result (in the experiment listed under Homo sapiens [3]; in experiment [4]; in the experiment filed under Homo sapiens [5]; in the experiment listed under Homo sapiens [6]; in the experiment listed under Homo sapiens [7]) was inactive.

As for `COc1ccccc1-c1nc(CNC(=O)c2cc(C#N)ccc2OC(F)F)n[nH]1`, in [9], the outcome was Active.

In the case of `O=C(NCc1cc(-c2cccs2)[nH]n1)c1ccccc1C(F)(F)F`, the result in [10] was Active.

With `O=C(NCc1cc(-c2ccccc2O)[nH]n1)c1ccccc1OC(F)(F)F`, the outcome in experiment [8] and in experiment [9] was Active.

In the case of `COc1ccccc1-c1nc(CNC(=O)c2ccccc2OC(F)F)n[nH]1`, the result in experiment [8], in [2] and in experiment [9] was Active. Further, the result (in the experiment listed under Homo sapiens [3]; in experiment [4]; in the experiment listed under Homo sapiens [5]; in the experiment listed under Homo sapiens [6]; in the experiment filed under Homo sapiens [7]) was inactive.

Take `COc1ccc(F)cc1-c1nc(CNC(=O)c2cccc3c2OC(F)(F)O3)n[nH]1`: the inhibition in vivo at 75 mg/kg in the experiment on MV4-11 [11] was 43%. Further, in the experiment with MV4-11 [12], the inhibition in vivo at 150 mg/kg was found to be 37%. Besides, in experiment [9], the outcome was Active.

As for `COc1ccc(F)cc1-c1nc(CNC(=O)c2cc(F)ccc2OC(F)(F)F)n[nH]1`, the inhibition in vivo at 25 mg/kg was 73.6% in the experiment on K562 [13] and 86.3% in the experiment with K562 [14].

Consider `O=C(NCc1cc(-c2cccs2)[nH]n1)c1ccccc1OC(F)F`, for which the result in experiment [15] was Active.

Values taken from ChEMBL document CHEMBL5052833, “Ube2k modulators and methods for their use” (2021).
